{"source": "PubChem BioAssay AID1607", "about": "(NINDS Approved Drug Screening Program, 2009)", "note": "Inconclusive results are not listed."}
{"system": "cells expressing AR112-GFP, GFP fluorescence", "assay": "AR112GFP polyglutamine androgen receptor turnover promoters – cell-based, GFP fluorescence (AID 1607)", "units": {"EC50": "µM"}}
{"smiles": "Clc1ccc(C(OCCN2CCCCC2)c2ccccc2)cc1", "note": "(stereo not given)", "EC50": 3.75}
{"smiles": "CC(CN(C)C)CN1c2ccccc2Sc2ccccc21", "note": "(stereo not given)", "EC50": 3.75}
{"smiles": "CN(C)CCC=C1c2ccccc2C=Cc2ccccc21", "EC50": 3.12}
{"smiles": "COC(=O)[C@H]1[C@H]2C[C@@H]3c4[nH]c5cc(OC)ccc5c4CCN3C[C@H]2C[C@@H](OC(=O)c2cc(OC)c(OC)c(OC)c2)[C@@H]1OC", "EC50": 3.75}
{"smiles": "CCC(C)[C@H]1O[C@]2(C=C[C@@H]1C)C[C@@H]1C[C@@H](C/C=C(\\C)[C@@H](OC3C[C@H](OC)C(O[C@H]4C[C@H](OC)[C@@H](O)[C@H](C)O4)[C@H](C)O3)[C@@H](C)/C=C/C=C3\\CO[C@@H]4[C@H](O)C(C)=C[C@@H](C(=O)O1)[C@]34O)O2", "note": "(stereo not given in full)", "EC50": 3.75}
{"smiles": "CNCCCN1c2ccccc2CCc2ccccc21", "EC50": 3.12}
{"smiles": "NCCc1cc(O)c(O)cc1O", "EC50": 3.12}
{"smiles": "Fc1ccc(C(c2ccc(F)cc2)N2CCN(C/C=C/c3ccccc3)CC2)cc1", "EC50": 3.75}
{"smiles": "CN(C)C(=O)C(CCN1CCC(O)(c2ccc(Cl)cc2)CC1)(c1ccccc1)c1ccccc1", "EC50": 3.75}
{"smiles": "CN1CCC[C@@H]1CCO[C@](C)(c1ccccc1)c1ccc(Cl)cc1", "EC50": 3.12}
{"smiles": "COc1ccc2cc3[n+](cc2c1OC)CCc1cc2c(cc1-3)OCO2", "EC50": 3.12}
{"smiles": "CN1CCN(CCC=C2c3ccccc3Sc3ccc(S(=O)(=O)N(C)C)cc32)CC1", "EC50": 3.12}
{"smiles": "CCc1nc(N)nc(N)c1-c1ccc(Cl)cc1", "EC50": 3.75}
{"smiles": "O=c1cc(-c2ccccc2)oc2c(O)c(O)ccc12", "EC50": 2.5}
{"smiles": "CC(CN(C)C)CN1c2ccccc2CCc2ccccc21", "note": "(stereo not given)", "EC50": 3.75}
